These results are taken from BindingDB's records for doi:10.1016/j.bioorg.2013.09.002 (Ewha Womans University, 2013).

Where a SMILES comes first, the peptide text is derived from it. The star is where a group is joined. Cbz = O=C(OCc1ccccc1)*; CH2F = FC*

Test [1] deals with T1, Calpain-1 catalytic subunit (Homo sapiens, UniProt P07384).
T1 sequence (P07384 whole entry): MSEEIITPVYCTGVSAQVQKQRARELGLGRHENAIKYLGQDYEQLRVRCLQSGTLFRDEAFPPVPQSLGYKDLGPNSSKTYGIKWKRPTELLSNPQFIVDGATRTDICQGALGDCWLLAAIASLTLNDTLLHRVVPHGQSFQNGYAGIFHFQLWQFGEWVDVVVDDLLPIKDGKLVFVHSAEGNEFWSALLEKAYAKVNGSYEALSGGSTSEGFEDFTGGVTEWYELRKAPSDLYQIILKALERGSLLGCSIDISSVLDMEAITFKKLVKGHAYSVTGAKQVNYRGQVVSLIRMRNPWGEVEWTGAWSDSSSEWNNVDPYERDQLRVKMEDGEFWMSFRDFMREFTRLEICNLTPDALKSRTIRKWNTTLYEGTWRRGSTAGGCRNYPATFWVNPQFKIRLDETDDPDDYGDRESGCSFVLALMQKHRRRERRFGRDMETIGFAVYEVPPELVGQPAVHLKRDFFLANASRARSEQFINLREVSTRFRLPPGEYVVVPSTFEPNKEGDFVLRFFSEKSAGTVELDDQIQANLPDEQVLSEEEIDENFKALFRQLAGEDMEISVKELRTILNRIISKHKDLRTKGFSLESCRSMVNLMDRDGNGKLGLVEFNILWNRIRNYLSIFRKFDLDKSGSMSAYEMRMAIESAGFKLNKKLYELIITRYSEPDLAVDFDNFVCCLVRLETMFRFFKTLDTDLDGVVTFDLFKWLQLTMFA
Briefly: µ-Calpain Inhibition Assay. Particulars: pH 7.5; 25 °C. Here is the method: The reaction was initiated by sequential addition of substrate A, µ-calpain, each compound, and finally a CaCl2 solution. The reaction mixture (100 µL) was incubated at room temperature for 30 min with shaking. Fluorescence intensities were measured at 320 nm excitation and 420 nm emission wavelengths.

The target of test [2] is T2, Calpain-2 catalytic subunit (Homo sapiens, UniProt P17655).
T2 sequence (P17655 whole entry): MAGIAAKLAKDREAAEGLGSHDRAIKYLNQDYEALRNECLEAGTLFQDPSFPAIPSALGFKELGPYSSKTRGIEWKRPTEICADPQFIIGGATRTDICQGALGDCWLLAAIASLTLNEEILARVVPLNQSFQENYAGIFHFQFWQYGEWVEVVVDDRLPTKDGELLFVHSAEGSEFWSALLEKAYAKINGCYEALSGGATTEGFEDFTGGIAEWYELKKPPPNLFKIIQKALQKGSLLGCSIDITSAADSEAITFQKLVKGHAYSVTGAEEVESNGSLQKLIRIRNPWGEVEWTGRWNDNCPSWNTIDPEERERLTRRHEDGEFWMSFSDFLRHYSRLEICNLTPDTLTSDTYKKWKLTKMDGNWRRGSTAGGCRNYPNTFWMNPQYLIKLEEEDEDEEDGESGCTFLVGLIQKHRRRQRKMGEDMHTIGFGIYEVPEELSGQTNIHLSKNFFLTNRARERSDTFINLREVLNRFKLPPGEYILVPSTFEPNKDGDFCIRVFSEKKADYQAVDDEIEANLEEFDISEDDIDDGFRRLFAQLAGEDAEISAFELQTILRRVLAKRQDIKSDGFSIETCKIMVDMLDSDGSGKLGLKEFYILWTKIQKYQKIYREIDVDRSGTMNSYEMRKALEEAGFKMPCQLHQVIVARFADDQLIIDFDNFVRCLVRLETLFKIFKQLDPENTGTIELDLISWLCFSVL
Kind of test: m-Calpain Inhibition Assay. Particulars: pH 7.5; 25 °C. Here is the method:
Inhibition of m-calpain was assayed in the reaction buffer (50 mM Tris-HCl, 100 mM NaCl, 5 mM β-mercaptoethanol, and 1 mM EDTA, pH 7.5) with 50 µM substrate B, 5 mM CaCl2 and 2.88 U/mL m-calpain. The reaction was initiated by sequential addition of substrate B, m-calpain, each compound, and finally a CaCl2 solution. The reaction mixture (100 µL) was incubated at room temperature for 30 min with shaking. Fluorescence intensities were measured at 320 nm excitation and 420 nm emission wavelengths. MDL28170 was used as a positive control for µ- and m-calpain inhibition.

Test [3] has as its target Procathepsin L (Homo sapiens, UniProt P07711). Briefly: Cathepsin L Inhibition Assay. Particulars: pH 5.5; 37 °C. On the procedure: Inhibition of cathepsin L was assayed in reaction buffer (0.1M NaOAc-HCl, 1 mM EDTA, 0.1% β-mercaptoethanol, pH 5.5) containing 20 µM substrate and 4 nM cathepsin L. Z-FR-AMC was used as a substrate for […]. Cathepsin L was activated by incubation in assay buffer at 37 °C for 30 min prior to initiation of the reaction by addition of the substrate and test compound. The reaction mixture was then incubated at room temperature for 30 min with shaking. Fluorescence intensities were measured at 360 nm excitation and 450 nm emission wavelengths.

Procathepsin L, sequence (P07711 whole entry): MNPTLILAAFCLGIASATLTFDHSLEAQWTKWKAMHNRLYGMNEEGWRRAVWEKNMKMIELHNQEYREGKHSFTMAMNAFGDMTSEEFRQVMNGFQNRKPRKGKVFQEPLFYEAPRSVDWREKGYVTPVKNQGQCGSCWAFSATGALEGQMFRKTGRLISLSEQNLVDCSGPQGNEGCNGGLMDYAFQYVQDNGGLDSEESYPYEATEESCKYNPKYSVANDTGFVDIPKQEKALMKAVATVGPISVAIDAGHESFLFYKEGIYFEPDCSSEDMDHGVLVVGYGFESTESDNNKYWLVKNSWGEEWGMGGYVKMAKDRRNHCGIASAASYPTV

For the compound `O=C(/C=C/c1ccsc1)c1cc(O)cc(O)c1` [1-(3,5-Dihydroxyphenyl)-3-(thiophen-3-yl)propenone (23)], the IC50 (as a rule, the concentration needed to halve the response being measured) in test [1] was more than 100 µM; in test [2], 97.3 µM; in test [3], more than 100 µM.

With `CC(C)C(NC(=O)OCc1ccccc1)C(=O)NC(C=O)Cc1ccccc1` [benzyl N-[(1S)-2-methyl-1-[(1-oxo-3-phenylpropan-2-yl)carbamoyl]propyl]carbamate] (Cbz-Val-Phe-aldehyde; configuration not given here), in test [2], the IC50 amounted to 0.15 µM.

Regarding `O=C(/C=C/c1ccccn1)c1ccc(O)cc1O` [1-(2,4-Dihydroxyphenyl)-3-(pyridin-2-yl)propenone (8)], the 50% inhibitory concentration (IC50) in test [1], in test [2] and in test [3] was more than 100 µM each time.

With `O=C(/C=C/c1ccc(O)cc1O)c1cccs1` [3-(2,4-Dihydroxyphenyl)-1-(thiophen-2-yl)propenone (13)], the results for the 50% inhibitory concentration (IC50) in test [1], in test [2] and in test [3] were more than 100 µM, 60.2 µM and 2.8 µM, respectively.

`O=C(NC(Cc1ccccc1)C(=O)NC(Cc1ccccc1)C(=O)CF)OCc1ccccc1` (stereo not drawn) [benzyl N-[1-[(4-fluoro-3-oxo-1-phenylbutan-2-yl)amino]-1-oxo-3-phenylpropan-2-yl]carbamate] (Cbz-Phe-Phe-CH2F; configuration not given here): the IC50 is 0.397 µM in test [1] and 0.418 µM in test [2].

Regarding `O=C(/C=C/c1ccoc1)c1cc(O)cc(O)c1` [1-(3,5-Dihydroxyphenyl)-3-(furan-3-yl)propenone (24)], the half-inhibitory concentration (IC50) in test [1], in test [2] and in test [3] was more than 100 µM throughout.

On to `O=C(/C=C/c1ccc(O)cc1O)c1ccco1` [3-(2,4-Dihydroxyphenyl)-1-(furan-2-yl)propenone (14)], for which the 50% inhibitory concentration (IC50) in test [1] was more than 100 µM; in test [2] it was more than 100 µM; in test [3], 2.87 µM.

For the compound `O=C(/C=C/c1ccccc1)c1cc(O)cc(O)c1` [1-(3,5-Dihydroxyphenyl)-3-phenylpropenone (22)], the half-maximal inhibitory concentration (IC50) in test [1], in test [2] and in test [3] was more than 100 µM each time.

In the case of `O=C(/C=C/c1ccncc1)c1ccc(O)cc1O` [1-(2,4-Dihydroxyphenyl)-3-(pyridin-4-yl)propenone (6)], the values for the half-inhibitory concentration (IC50) in test [1], in test [2] and in test [3] were more than 100 µM, more than 100 µM and 44.4 µM, respectively.

Turning to `O=C(/C=C/c1cccs1)c1cc(O)cc(O)c1` [1-(3,5-Dihydroxyphenyl)-3-(thiophen-2-yl)propenone (20)], the half-inhibitory concentration (IC50) in test [1], in test [2] and in test [3] was more than 100 µM throughout.

For `O=C(/C=C/c1ccco1)c1cc(O)cc(O)c1` [1-(3,5-Dihydroxyphenyl)-3-(furan-2-yl)propenone (21)], the IC50 in test [1], in test [2] and in test [3] was more than 100 µM throughout.

Turning to `O=C(/C=C/c1ccco1)c1ccc(O)cc1O` [1-(2,4-Dihydroxyphenyl)-3-(furan-2-yl)propenone (10)], the IC50 in test [1] was found to be 86.7 µM; in test [2] it was 25.4 µM; in test [3] it was 90.5 µM.

On to `O=C(/C=C/c1cccnc1)c1ccc(O)cc1O` [1-(2,4-Dihydroxyphenyl)-3-(pyridin-3-yl)propenone (7)], for which the 50% inhibitory concentration (IC50) in test [1], in test [2] and in test [3] was more than 100 µM throughout.

On to `O=C(/C=C/c1cccs1)c1ccc(O)cc1O` [1-(2,4-Dihydroxyphenyl)-3-(thiophen-2-yl)propenone (9)], for which the IC50 in test [1] came out at 56.2 µM; in test [2] it was 39.9 µM; in test [3], 53 µM.

As to `CCCNC(=O)[C@H]1O[C@@H]1C(=O)N[C@H](C(=O)N1CCC[C@H]1C(=O)O)[C@@H](C)CC` [CA074], the concentration for half-maximal inhibition (IC50) in test [1] and in test [2] was more than 100 µM throughout.
